In US20260193293A1, “PEPTIDES CAPABLE OF INHIBITING PROTEIN-PROTEIN INTERACTIONS AT GABAB1A SUBUNIT AND USES THEREOF” (UNIVERSITY OF COPENHAGEN, priority 2022, published 2026) one finds Ki data, which are given here for 16 compounds.

Where two headings read alike, the source gives them in different places. Non-standard residues stand in square brackets, D forms with d. Residues, ends and D or L forms follow the SMILES beside them. NMeW = CN[C@@H](Cc1c[nH]c2ccccc12)C(=O)O; 2Nal = N[C@@H](Cc1ccc2ccccc2c1)C(=O)O; NMeA = CN[C@@H](C)C(=O)O Some results are limits rather than exact numbers.

The target in the assay is Sushi domains (SD1/2) protein. The experiment in a line: Fluorescence polarization (FP) competition assay with AJAP-1probe, calculated Ki. In kind it is binding. An outline of the steps:
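Competition against 25 nM TAMRA-labelled peptide probe binding SD1/2, in PBS pH 7.4 with 1% BSA at rt, read at 530/580 nm. IC50 from sigmoidal dose-response fits, at least triplicate; Ki calculated from IC50 using probe Kd from saturation binding.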

Setting [1] is: Table 9, Ala-, D-amino acids and N-methylation scans of PIANPWT, read-out: Ki (nM) mean ± SEM.
The mark [2] stands for this setting: Table 14, CPPs tagged peptides, read-out: Ki (nM) mean ± SEM.
[3] abbreviates: Table 6, elongation and truncation scan of PIANP binding epitope, read-out: Ki (nM) mean ± SEM.
The mark [4] stands for this setting: Table 12, deep mutational scanning validation variants of PIANPWT, read-out: Ki (nM) mean ± SEM.
[5] abbreviates: Table 10, deep mutational scanning validation variants of APPWT, read-out: Ki (nM) mean ± SEM.

As for `CC[C@H](C)[C@H](NC(=O)[C@H](Cc1ccccc1)NC(=O)[C@H](CCC(=O)O)NC(=O)[C@@H](NC(=O)[C@H](CCC(=O)O)NC(C)=O)[C@@H](C)O)C(=O)N[C@@H](C)C(=O)N[C@@H](C)C(=O)NCC(=O)N1CCC[C@H]1C(=O)N[C@H](C(=O)NCC(=O)N[C@@H](CC(=O)O)C(=O)N[C@@H](CCC(=O)O)C(=O)N[C@@H](CC(=O)O)C(N)=O)[C@@H](C)O` [ETEFIAAGPTGDED] (Ac-ETEFIAAGPTGDED-NH2), the inhibitory constant (Ki) (Table 8, in μM, read-out: Ki (nM) mean ± SEM) is more than 6.25 µM.
Turning to `CC[C@H](C)[C@H](NC(=O)[C@H](C)NC(=O)[C@H](Cc1c[nH]c2ccccc12)NC(=O)[C@@H]1CCCN1C(C)=O)C(=O)N[C@H](C(=O)N(C)[C@@H](Cc1c[nH]c2ccccc12)C(=O)NCC(=O)N1CCC[C@H]1C(=O)N[C@H](C(=O)N[C@H](C(=O)N[C@@H](CO)C(=O)N[C@@H](CCCNC(=N)N)C(=O)N[C@@H](CCC(=O)O)C(=O)N[C@@H](CC(=O)O)C(N)=O)C(C)C)[C@@H](C)O)C(C)C` [PWAIV(N-Me-W)GPTVSRED] (Ac-PWAIV[NMeW]GPTVSRED-NH2), the Ki under setting [1] is 0.636 ± 0.006 µM.
`CC[C@H](C)[C@H](NC(=O)[C@H](Cc1ccccc1)NC(=O)[C@H](CCC(=O)O)NC(=O)[C@@H](NC(=O)[C@H](CCC(=O)O)NC(C)=O)[C@@H](C)O)C(=O)N[C@@H](C)C(=O)N[C@@H](Cc1c[nH]c2ccccc12)C(=O)NCC(=O)N1CCC[C@H]1C(=O)N[C@H](C(=O)NCC(=O)N[C@@H](CC(=O)O)C(=O)N[C@@H](CCC(=O)O)C(=O)N[C@@H](C)C(N)=O)[C@@H](C)O` (Ac-ETEFIAWGPTGDEA-NH2): the Ki (Table 8, Ala-, D-amino acids and N-methylation scans of AJAP-1WT, read-out: Ki (nM) mean ± SEM) is 0.044 ± 0.001 µM.
As to `CC[C@H](C)[C@H](NC(=O)[C@H](Cc1c[nH]c2ccccc12)NC(=O)[C@H](CC(=O)O)NC(=O)[C@H](CC(=O)O)NC(=O)[C@H](CC(=O)O)NC(=O)[C@H](CCC(=O)O)NC(=O)[C@H](CCCNC(=N)N)NC(=O)[C@H](CCCNC(=N)N)NC(=O)[C@H](CCCNC(=N)N)NC(=O)[C@H](CCCNC(=N)N)NC(C)=O)C(=O)N[C@@H](CC(=O)O)C(=O)N[C@@H](Cc1c[nH]c2ccccc12)C(=O)NCC(=O)N1CCC[C@H]1C(=O)N[C@H](C(=O)N[C@@H](CO)C(=O)N[C@@H](CC(=O)O)C(=O)N[C@@H](CC(=O)O)C(=O)N[C@@H](CC(=O)O)C(N)=O)[C@@H](C)O` [Peptide 4R-17] (Ac-RRRREDDDWIDWGPTSDDD-NH2), the Ki under setting [2] was 0.015 ± 0.001 µM.
Turning to `CC[C@H](C)[C@H](NC(=O)[C@H](C)NC(=O)[C@H](Cc1c[nH]c2ccccc12)NC(=O)[C@@H]1CCCN1C(C)=O)C(=O)N[C@H](C(=O)N[C@@H](Cc1c[nH]c2ccccc12)C(=O)NCC(=O)N1CCC[C@H]1C(=O)N[C@H](C(=O)N[C@H](C(=O)N[C@@H](CO)C(=O)N[C@@H](CCCNC(=N)N)C(N)=O)C(C)C)[C@@H](C)O)C(C)C` (Ac-PWAIVWGPTVSR-NH2), under setting [3], the Ki was 0.433 ± 0.002 µM.
For the compound `CC[C@H](C)[C@H](NC(=O)[C@H](C)NC(=O)[C@H](Cc1c[nH]c2ccccc12)NC(=O)[C@@H]1CCCN1C(C)=O)C(=O)N[C@H](C(=O)N[C@@H](Cc1c[nH]c2ccccc12)C(=O)NCC(=O)N1CCC[C@H]1C(=O)N[C@H](C(=O)N[C@H](C(=O)N[C@@H](CO)C(=O)N[C@@H](CC(=O)O)C(=O)N[C@@H](CCC(=O)O)C(=O)N[C@@H](CC(=O)O)C(N)=O)C(C)C)[C@@H](C)O)C(C)C` [PWAIVWGPTVSDED] (Ac-PWAIVWGPTVSDED-NH2), the Ki under setting [4] was 0.327 ± 0.006 µM.
On to `CC[C@H](C)[C@H](NC(=O)[C@H](Cc1ccccc1)NC(=O)[C@H](CCC(=O)O)NC(=O)[C@@H](NC(=O)[C@H](CCC(=O)O)NC(C)=O)[C@@H](C)O)C(=O)N[C@@H](C)C(=O)N[C@@H](Cc1c[nH]c2ccccc12)C(=O)NCC(=O)N1CCC[C@H]1C(=O)N[C@H](C(=O)NCC(=O)N[C@@H](CC(=O)O)C(=O)N[C@@H](CC(=O)O)C(=O)N[C@@H](CC(=O)O)C(N)=O)[C@@H](C)O` (Ac-ETEFIAWGPTGDDD-NH2), for which the Ki (Table 11, deep mutational scanning validation variants of AJAP-1WT, read-out: Ki (nM) mean ± SEM) is 0.027 ± 0.002 µM.
Regarding `CC(=O)N[C@@H](CCC(=O)O)C(=O)N[C@@H](CC(=O)O)C(=O)N[C@@H](CC(=O)O)C(=O)N[C@@H](CO)C(=O)N[C@@H](CC(=O)O)C(=O)N[C@H](C(=O)N[C@@H](Cc1c[nH]c2ccccc12)C(=O)N[C@@H](Cc1c[nH]c2ccccc12)C(=O)NCC(=O)NCC(=O)N[C@@H](C)C(=O)N[C@@H](C)C(=O)N[C@H](C(=O)N[C@@H](CC(=O)O)C(N)=O)[C@@H](C)O)C(C)C` (Ac-EDDSDVWWGGAATD-NH2), where the note is “Table 7, Ala-, D-amino acids and N-methylation scans of APPWT, read-out: Ki (nM) mean ± SEM”, the Ki was 0.653 ± 0.025 µM.
`CC[C@H](C)[C@H](NC(=O)[C@H](C)N(C)C(=O)[C@H](Cc1c[nH]c2ccccc12)NC(=O)[C@@H]1CCCN1C(C)=O)C(=O)N[C@H](C(=O)N[C@@H](Cc1c[nH]c2ccccc12)C(=O)NCC(=O)N1CCC[C@H]1C(=O)N[C@H](C(=O)N[C@H](C(=O)N[C@@H](CO)C(=O)N[C@@H](CCCNC(=N)N)C(=O)N[C@@H](CCC(=O)O)C(=O)N[C@@H](CC(=O)O)C(N)=O)C(C)C)[C@@H](C)O)C(C)C` [PW(N-Me-A)IVWGPTVSRED] (Ac-PW[NMeA]IVWGPTVSRED-NH2): the Ki under setting [1] was 7.23 ± 0.13 µM.
Consider `CC[C@H](C)[C@H](NC(=O)[C@H](Cc1ccc(OCc2ccccc2)cc1)NC(=O)[C@H](CC(=O)O)NC(=O)[C@H](CC(=O)O)NC(=O)[C@H](CC(=O)O)NC(=O)[C@H](CCC(=O)O)NC(C)=O)C(=O)N[C@@H](CC(=O)O)C(=O)N[C@@H](Cc1c[nH]c2ccccc12)C(=O)N[C@@H](Cc1ccc(O)cc1)C(=O)N[C@@H](CC(=O)O)C(=O)N[C@@H](CO)C(=O)N[C@@H](CC(=O)O)C(=O)N[C@@H](CC(=O)O)C(=O)N[C@@H](CC(=O)O)C(N)=O` [Peptide 33], for which the Ki (Table 1, affinity maturation, mean ± SEM, n ≥ 3, read-out: Ki) is 0.0093 ± 0.0002 µM and the Ki (Table 16, ncAAs incorporated peptides, read-out: Ki (nM) mean ± SEM) was 0.0093 ± 0.0002 µM.
In the case of `CC[C@H](C)[C@H](NC(=O)[C@H](C)NC(=O)[C@H](Cc1c[nH]c2ccccc12)NC(=O)[C@@H]1CCCN1C(C)=O)C(=O)N[C@H](C(=O)N[C@@H](Cc1c[nH]c2ccccc12)C(=O)NCC(=O)N1CCC[C@H]1C(=O)N[C@H](C(=O)N[C@H](C(N)=O)C(C)C)[C@@H](C)O)C(C)C` (Ac-PWAIVWGPTV-NH2), the Ki under setting [3] was 0.561 ± 0.021 µM.
Turning to `CC[C@H](C)[C@H](NC(=O)[C@H](Cc1c[nH]c2ccccc12)NC(=O)[C@H](CC(=O)O)NC(=O)[C@H](CC(=O)O)NC(=O)[C@H](CC(=O)O)NC(=O)[C@H](CCC(=O)O)NC(=O)[C@H](CCCNC(=N)N)NC(=O)[C@H](CCCNC(=N)N)NC(=O)[C@H](CCCNC(=N)N)NC(=O)[C@H](CCC(N)=O)NC(=O)[C@H](CCCNC(=N)N)NC(=O)[C@H](CCCNC(=N)N)NC(=O)[C@H](CCCCN)NC(=O)[C@H](CCCCN)NC(=O)[C@H](CCCNC(=N)N)NC(=O)CNC(=O)[C@H](Cc1ccc(O)cc1)NC(C)=O)C(=O)N[C@@H](CC(=O)O)C(=O)N[C@@H](Cc1c[nH]c2ccccc12)C(=O)N[C@@H](Cc1ccc(O)cc1)C(=O)N[C@@H](CC(=O)O)C(=O)N[C@@H](CO)C(=O)N[C@@H](CC(=O)O)C(=O)N[C@@H](CC(=O)O)C(=O)N[C@@H](CC(=O)O)C(N)=O` [Tat-16] (Ac-YGRKKRRQRRREDDDWIDWYDSDDD-NH2), the Ki (CPP tagged peptides overview, SD1/2 binding affinity, mean ± SEM, n ≥ 3, read-out: Ki) is 0.083 ± 0.001 µM and the Ki under setting [2] is 0.0834 ± 0.001 µM.
In the case of `CC(=O)N[C@@H](CCC(=O)O)C(=O)N[C@@H](CC(=O)O)C(=O)N[C@@H](CC(=O)O)C(=O)N[C@@H](CO)C(=O)N[C@@H](CC(=O)O)C(=O)N[C@H](C(=O)N[C@@H](Cc1c[nH]c2ccccc12)C(=O)N[C@@H](Cc1c[nH]c2ccccc12)C(=O)NCC(=O)NCC(=O)N[C@@H](C)C(=O)N[C@@H](CC(=O)O)C(=O)N[C@@H](Cc1c[nH]cn1)C(=O)N[C@@H](CC(=O)O)C(N)=O)C(C)C` (Ac-EDDSDVWWGGADHD-NH2), the Ki under setting [5] was 0.739 ± 0.009 µM.
For the compound `CC[C@H](C)[C@H](NC(=O)[C@H](CC(=O)O)NC(=O)[C@H](CC(=O)O)NC(=O)[C@H](Cc1ccc(O)cc1)NC(=O)[C@H](CC(=O)O)NC(=O)[C@H](CC(=O)O)NC(=O)[C@H](CO)NC(=O)[C@H](CC(=O)O)NC(=O)[C@H](CCC(=O)O)NC(=O)[C@H](Cc1ccc2ccccc2c1)NC(=O)[C@H](CCCNC(=N)N)NC(=O)[C@H](CCCNC(=N)N)NC(=O)[C@H](CCCNC(=N)N)NC(=O)[C@H](CCCNC(=N)N)NC(C)=O)C(=O)N[C@@H](CC(=O)O)C(=O)N[C@@H](CC(=O)O)C(=O)N[C@@H](CC(=O)O)C(=O)N[C@@H](Cc1c[nH]c2ccccc12)C(N)=O` [reference compound] (Ac-RRRR[2Nal]EDSDDYDDIDDDW-NH2), the Ki under setting [2] is 143 ± 2.5 µM.
As for `CC[C@H](C)[C@H](NC(=O)[C@H](C)NC(=O)[C@H](Cc1c[nH]c2ccccc12)NC(=O)[C@@H]1CCCN1C(C)=O)C(=O)N[C@H](C(=O)N[C@@H](Cc1c[nH]c2ccccc12)C(=O)NCC(=O)N1CCC[C@H]1C(=O)N[C@H](C(=O)N[C@H](C(=O)N[C@@H](CC(=O)O)C(=O)N[C@@H](CCCNC(=N)N)C(=O)N[C@@H](CCC(=O)O)C(=O)N[C@@H](CC(=O)O)C(N)=O)C(C)C)[C@@H](C)O)C(C)C` [PWAIVWGPTVDRED] (Ac-PWAIVWGPTVDRED-NH2), the Ki under setting [4] is 0.379 ± 0.009 µM.
With `CC(=O)N[C@@H](CCC(=O)O)C(=O)N[C@@H](CC(=O)O)C(=O)N[C@@H](CC(=O)O)C(=O)N[C@@H](CO)C(=O)N[C@@H](CC(=O)O)C(=O)N[C@H](C(=O)N[C@@H](Cc1c[nH]c2ccccc12)C(=O)N[C@@H](Cc1c[nH]c2ccccc12)C(=O)NCC(=O)NCC(=O)N[C@@H](C)C(=O)N[C@@H](CC(=O)O)C(=O)N[C@@H](Cc1c[nH]c2ccccc12)C(=O)N[C@@H](CC(=O)O)C(N)=O)C(C)C` (Ac-EDDSDVWWGGADWD-NH2), under setting [5], the Ki was 0.459 ± 0.021 µM.

The Ki is a dissociation constant, usually derived from enzyme kinetics or from competition with a known ligand.
